For 32 compounds, IC50 results are on record in EP4763839A1 (Pamplona Therapeutics (Shenzhen) Co., Ltd., priority 2023, dated 2025).

The assay addresses T1, IRAK4 (Homo sapiens, UniProt Q9NWZ3).
T1 sequence (Q9NWZ3 1-460): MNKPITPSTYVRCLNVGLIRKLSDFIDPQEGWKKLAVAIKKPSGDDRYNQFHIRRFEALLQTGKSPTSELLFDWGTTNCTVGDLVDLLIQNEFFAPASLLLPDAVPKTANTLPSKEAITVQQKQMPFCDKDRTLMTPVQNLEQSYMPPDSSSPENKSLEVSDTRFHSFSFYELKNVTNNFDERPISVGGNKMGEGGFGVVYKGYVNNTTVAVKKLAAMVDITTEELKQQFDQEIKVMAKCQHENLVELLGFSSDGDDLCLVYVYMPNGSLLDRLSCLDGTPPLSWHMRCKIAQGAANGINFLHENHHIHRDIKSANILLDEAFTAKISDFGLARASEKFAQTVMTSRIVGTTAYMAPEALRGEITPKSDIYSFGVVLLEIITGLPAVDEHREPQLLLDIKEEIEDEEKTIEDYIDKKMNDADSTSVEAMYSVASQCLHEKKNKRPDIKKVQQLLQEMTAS
The assay can be described thus: Assay for inhibitory effect of compound on IRAK4 kinase activity (KinEASE-STK S1 HTRF kit). It is filed as biochemical. Conditions: kinase 8 nM, ATP 80 µM, 37°C 90 minutes; read-out: IRAK4 HTRF IC50. As for the experimental part:
Example 1: Kinase activity assay
Assay for inhibitory effect of compound on IRAK4 kinase activity
The inhibitory effect of the compound on IRAK4 kinase activity was measured using the KinEASE-STK S1 serine/threonine kinase kit (Cisbio). The specific method was as follows: the compound was dissolved in dimethyl sulfoxide and then subjected to 3-fold serial dilution in dimethyl sulfoxide, yielding final test compound concentrations in the reaction system ranging from 5,000 nM to 0.0254 nM. The kinase at a final concentration of 8 nM was added, followed by incubation at rt for 15 minutes. Subsequently, biotinylated STK1 substrate at a final concentration of 400 nM and adenosine triphosphate (ATP) at a final concentration of 80 µM were sequentially added, and the mixture was incubated at 37°C for 90 minutes. Then, the reaction was terminated by adding an anti-phosphoserine/threonine antibody conjugated with a europium cryptate and streptavidin-conjugated XL665 to the reaction system. After incubation at rt for 1 hour, the fluorescence intensity at emission wavelengths of 620 nm and 665 nm for each well was measured using an EnVision microplate reader (PerkinElmer) in HTRF mode. The ratio value was calculated using the formula: Ratio = (665 nm/620 nm)×10^4 The inhibition rate of the compound at each concentration was calculated using the formula: Inhibition% = [1-(Signal sample-Signal min)/(Signal max-Signal min)]×100. Subsequently, the dose-response curve was fitted by nonlinear curve fitting of log concentration versus inhibition rate using Fit Modela (205) in XLfit to give the IC50 value of the compound for inhibition of protein activity.
In the case of `NS(=O)(=O)c1nn(-c2ccccc2)cc1NC(=O)c1cccc(-c2c[nH]cn2)n1` [Compound A94, 6-(1H-imidazol-4-yl)-N-(1-phenyl-3-sulfamoyl-1H-pyrazol-4-yl)picolinamide], the IC50 (in general, the concentration needed to halve the response being measured) is < 0.1 µM. As to `NS(=O)(=O)c1nn(-c2ccccc2)cc1NC(=O)c1cccc(-c2cc[nH]c2)n1` [Compound A95, N-(1-phenyl-3-sulfamoyl-1H-pyrazol-4-yl)-6-(1H-pyrrol-3-yl)picolinamide], the IC50 is < 0.1 µM.

In the case of `CS(=N)(=O)c1nn(-c2ccccc2)cc1NC(=O)c1cccc(-c2cc[nH]n2)n1` (centres unmarked) [Compound A96, N-(3-(S-methylsulfonimidoyl)-1-phenyl-1H-pyrazol-4-yl)-6-(1H-pyrazol-3-yl)picolinamide], the IC50 lay in the range of 0.1 to 1 µM. The result for `CS(=N)(=O)c1nn(-c2ccccc2)cc1NC(=O)c1cccc(-c2cn[nH]c2)n1` (centres unmarked) [Compound A97, N-(3-(S-methylsulfonimidoyl)-1-phenyl-1H-pyrazol-4-yl)-6-(1H-pyrazol-4-yl)picolinamide] reads < 0.1 µM; that for `CS(=N)(=O)c1nn(-c2ccccc2)cc1NC(=O)c1cccc(-c2c[nH]cn2)n1` (centres unmarked) [Compound A98, 6-(1H-imidazol-4-yl)-N-(3-(S-methylsulfonimidoyl)-1-phenyl-1H-pyrazol-4-yl)picolinamide], 0.1 to 1 µM; that for `CC(C)(O)c1nn(C2CC3(CCNCC3)C2)cc1NC(=O)c1ccc2cc(C#N)cnn12` [Compound A106, 3-Cyano-N-(3-(2-hydroxypropan-2-yl)-1-(7-azaspiro[3.5]nonan-2-yl)-1H-pyrazol-4-yl)pyrrolo[1,2-b]pyridazine-7-carboxamide], < 0.1 µM.

Consider `CC(C)n1cc(-c2ccccc2)nc1NC(=O)c1cccc(C(F)(F)F)n1` [Compound A107, N-(1-isopropyl-4-phenyl-1H-imidazol-2-yl)-6-(trifluoromethyl)picolinamide], for which the IC50 is > 1 µM.

On to `CC(C)n1nc(-c2ccccc2)nc1NC(=O)c1cccc(C(F)(F)F)n1` [Compound A108, N-(1-Isopropyl-3-phenyl-1H-1,2,4-triazol-5-yl)-6-(trifluoromethyl)picolinamide], for which the 50% inhibitory concentration (IC50) is > 1 µM. For `NC(=O)c1nn(C2CCN(CCN3CCN(c4ccc5c(c4)C(=O)N(C4CCC(=O)NC4=O)C5=O)CC3)CC2)cc1NC(=O)c1cccc(C(F)(F)F)n1` (centres unmarked) [Compound A109] the value was 0.1 to 1 µM.

With `NC(=O)c1nn(-c2ccc(C(=O)N3CC(CNc4ccc5c(c4)C(=O)N(C4CCC(=O)NC4=O)C5=O)C3)cc2)cc1NC(=O)c1cccc(C(F)(F)F)n1` (centres unmarked) [Compound A110], the IC50 is < 0.1 µM. The result for `N#Cc1cnn2c(C(=O)Nc3cn(C4CC5(CCNCC5)C4)nc3C(F)F)ccc2c1` [Compound A229, 3-Cyano-N-(3-(difluoromethyl)-1-(7-azaspiro[3.5]nonan-2-yl)-1H-pyrazol-4-yl)pyrrolo[1,2-b]pyridazine-7-carboxamide] reads < 0.1 µM; that for `COc1nn(C2CC3(CCNCC3)C2)cc1NC(=O)c1ccc2cc(C#N)cnn12` [Compound A230, 3-Cyano-N-(3-methoxy-1-(7-azaspiro[3.5]nonan-2-yl)-1H-pyrazol-4-yl)pyrrolo[1,2-b]pyridazine-7-carboxamide], < 0.1 µM. For the compound `N#Cc1cnn2c(C(=O)Nc3cn(-c4ccccc4)nc3C(N)=O)ccc2c1` [Compound A231], the IC50 is < 0.1 µM. Turning to `CC(C)(O)c1nn(-c2ccccc2)cc1NC(=O)c1ccc2cc(C#N)cnn12` [Compound A232, 3-Cyano-N-(3-(2-hydroxypropan-2-yl)-1-phenyl-1H-pyrazol-4-yl)pyrrolo[1,2-b]pyridazine-7-carboxamide], the IC50 was < 0.1 µM. For `N#Cc1cnn2c(C(=O)Nc3cn(-c4ccccc4)nc3C(F)F)ccc2c1` [Compound A233, 3-Cyano-N-(3-(difluoromethyl)-1-phenyl-1H-pyrazol-4-yl)pyrrolo[1,2-b]pyridazine-7-carboxamide] the value was < 0.1 µM; for `[C-]#[N+]c1cnn2c(C(=O)Nc3cn(-c4ccccc4)nc3OC)ccc2c1` [Compound A234, 3-Isocyano-N-(3-methoxy-1-phenyl-1H-pyrazol-4-yl)pyrrolo[1,2-b]pyridazine-7-carboxamide], < 0.1 µM; for `N#Cc1cnn2c(C(=O)Nc3cn(C4CCCCC4)nc3C(N)=O)ccc2c1` [Compound A235], < 0.1 µM. The result for `O=C(Nc1cn(-c2ccccc2)nc1C(=O)CC(F)(F)F)c1cccc(-c2ccn[nH]2)n1` [Compound A236, N-(1-Phenyl-3-(3,3,3-trifluoropropanoyl)-1H-pyrazol-4-yl)-6-(1H-pyrazol-5-yl)picolinamide] reads 0.1 to 1 µM; that for `O=C(Nc1cn(-c2ccccc2)nc1OCC(F)(F)F)c1cccc(-c2ccn[nH]2)n1` [Compound A238, N-(1-Phenyl-3-(2,2,2-trifluoroethoxy)-1H-pyrazol-4-yl)-6-(1H-pyrazol-5-yl)picolinamide], < 0.1 µM; that for `O=C(Nc1cn(-c2ccccc2)nc1C(F)F)c1cccc(-c2ccn[nH]2)n1` [Compound A239, N-(3-(Difluoromethyl)-1-phenyl-1H-pyrazol-4-yl)-6-(1H-pyrazol-5-yl)picolinamide], < 0.1 µM. In the case of `CC(C)(O)c1nn(-c2ccccc2)cc1NC(=O)c1cccc(-c2ccn[nH]2)n1` [Compound A240, N-(3-(2-Hydroxypropan-2-yl)-1-phenyl-1H-pyrazol-4-yl)-6-(1H-pyrazol-5-yl)picolinamide], the half-maximal inhibitory concentration (IC50) is < 0.1 µM.

Take `CC(=O)c1nn(-c2ccccc2)cc1NC(=O)c1cccc(-c2ccn[nH]2)n1` [Compound A241, N-(3-Acetyl-1-phenyl-1H-pyrazol-4-yl)-6-(1H-pyrazol-5-yl)picolinamide]: the IC50 was < 0.1 µM. For `[2H]C([2H])C(=O)c1nn(-c2ccccc2)cc1NC(=O)c1cccc(-c2ccn[nH]2)n1` [Compound A242, N-(3-(Acetyl-2,2-d2)-1-phenyl-1H-pyrazol-4-yl)-6-(1H-pyrazol-5-yl)picolinamide] the value was < 0.1 µM. For `O=C(Nc1cn(-c2ccccc2)nc1C(=O)C(F)(F)F)c1cccc(-c2ccn[nH]2)n1` [Compound A243, N-(1-Phenyl-3-(2,2,2-trifluoroacetyl)-1H-pyrazol-4-yl)-6-(1H-pyrazol-5-yl)picolinamide] the value was < 0.1 µM; for `O=C(Nc1cn(-c2ccccc2)nc1C(=O)C(F)F)c1cccc(-c2ccn[nH]2)n1` [Compound A244, N-(3-(2,2-difluoroacetyl)-1-phenyl-1H-pyrazol-4-yl)-6-(1H-pyrazol-5-yl)picolinamide], < 0.1 µM; for `O=C(Nc1cn(-c2ccccc2)nc1C1CCN1)c1cccc(-c2ccn[nH]2)n1` (centres unmarked) [Compound A245, N-(3-(Azetidin-2-yl)-1-phenyl-1H-pyrazol-4-yl)-6-(1H-pyrazol-5-yl)picolinamide], > 1 µM. For `CNC(=O)c1nn(-c2ccccc2)cc1NC(=O)c1cccc(-c2ccn[nH]2)n1` [Compound A246, N-(3-(Methylcarbamoyl)-1-phenyl-1H-pyrazol-4-yl)-6-(1H-pyrazol-5-yl)picolinamide] the value was < 0.1 µM; for `CC(C)NC(=O)c1nn(-c2ccccc2)cc1NC(=O)c1cccc(-c2ccn[nH]2)n1` [Compound A247, N-(3-(Isopropylcarbamoyl)-1-phenyl-1H-pyrazol-4-yl)-6-(1H-pyrazol-5-yl)picolinamide], 0.1 to 1 µM. In the case of `CNS(=O)(=O)c1nn(-c2ccccc2)cc1NC(=O)c1cccc(-c2ccn[nH]2)n1` [Compound A248, N-(3-(N-Methylsulfamoyl)-1-phenyl-1H-pyrazol-4-yl)-6-(1H-pyrazol-5-yl)picolinamide], the IC50 is < 0.1 µM. On to `CC(C)NS(=O)(=O)c1nn(-c2ccccc2)cc1NC(=O)c1cccc(-c2ccn[nH]2)n1` [Compound A249, N-(3-(N-Isopropylsulfamoyl)-1-phenyl-1H-pyrazol-4-yl)-6-(1H-pyrazol-5-yl)picolinamide], for which the half-maximal inhibitory concentration (IC50) lay within 0.1 to 1 µM.

Take `O=C(Nc1cn(-c2ccccc2)nc1C(=O)NC1CC1)c1cccc(-c2ccn[nH]2)n1` [Compound A250, N-(3-(Cyclopropylcarbamoyl)-1-phenyl-1H-pyrazol-4-yl)-6-(1H-pyrazol-5-yl)picolinamide]: the IC50 was < 0.1 µM. The result for `O=C(Nc1cn(-c2ccccc2)nc1C(=O)NC1CC1(F)F)c1cccc(-c2ccn[nH]2)n1` (centres unmarked) [Compound A251, N-(3-((2,2-Difluorocyclopropyl)carbamoyl)-1-phenyl-1H-pyrazol-4-yl)-6-(1H-pyrazol-5-yl)picolinamide] reads < 0.1 µM.
